Assays:
[1] = Inhibition of HIV-1 integrase strand transfer activity
[2] = Inhibition of wild type HIV-1 LAI reverse transcriptase
[3] = Inhibition of HIV-1 Reverse transcriptase K103N mutant
[4] = Inhibition of HIV-1 Reverse transcriptase K103N/Y181C double mutant
[5] = Inhibition of HIV-1 Reverse transcriptase L100I/K103N double mutant

Structure (SMILES)	IC50 [1]	IC50 [2]	IC50 [3]	IC50 [4]	IC50 [5]
CCc1nc(SC)n(COCc2ccccc2)c1CC1CCCCC1	400 nM	–	–	–	–
CCOCn1c(SC)nc(C(C)C)c1CC1CCCCC1	250 nM	–	–	–	–
CSc1nc(C(C)C)c(CC2CCCCC2)n1COCc1ccccc1	260 nM	–	–	–	–
CSc1nc(C(C)C)c(Cc2ccccc2)n1COCc1ccccc1	3300 nM	–	–	–	–
Cc1cc(C#N)cc(C)c1Nc1ncnc(Nc2ccc(C#N)cc2)n1	–	0.4 nM	0.4 nM	32 nM	–
Cc1cc(C#N)cc(C)c1Oc1ncnc(Nc2ccc(C#N)cc2)n1	–	1.4 nM	1.4 nM	25 nM	49 nM
Cc1cc(/C=C/C#N)cc(C)c1Nc1ncnc(Nc2ccc(C#N)cc2)n1	–	0.4 nM	0.3 nM	1 nM	–

From BindingDB's records for PubMed 40053382 (Sapienza University of Rome)
